The target of this test is T1, PLK4 (Homo sapiens, UniProt O00444).
T1 construct: purchased Thermo Fisher Scientific (Life Technologies) SelectScreen
The test can be described thus: SelectScreen LanthaScreen. The test is classed as binding. The conditions noted are these: read-out: % displacement. A digest of the protocol:
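SelectScreen broad panel; activity (Z'LYTE, Adapta) plus binding formats. ATP: Km app for CSF1R Z'LYTE; 10 for CAMK1 Adapta. Readout = % per kinase.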
(In general: Time-resolved FRET reads energy transfer from a long-lived donor to a nearby acceptor.)

The record followed here is PMC6934184, “Selective DNA-PKcs inhibition extends the therapeutic index of localized radiotherapy and chemotherapy” (The Journal of Clinical Investigation, 2019).

T1 sequence (O00444 whole entry): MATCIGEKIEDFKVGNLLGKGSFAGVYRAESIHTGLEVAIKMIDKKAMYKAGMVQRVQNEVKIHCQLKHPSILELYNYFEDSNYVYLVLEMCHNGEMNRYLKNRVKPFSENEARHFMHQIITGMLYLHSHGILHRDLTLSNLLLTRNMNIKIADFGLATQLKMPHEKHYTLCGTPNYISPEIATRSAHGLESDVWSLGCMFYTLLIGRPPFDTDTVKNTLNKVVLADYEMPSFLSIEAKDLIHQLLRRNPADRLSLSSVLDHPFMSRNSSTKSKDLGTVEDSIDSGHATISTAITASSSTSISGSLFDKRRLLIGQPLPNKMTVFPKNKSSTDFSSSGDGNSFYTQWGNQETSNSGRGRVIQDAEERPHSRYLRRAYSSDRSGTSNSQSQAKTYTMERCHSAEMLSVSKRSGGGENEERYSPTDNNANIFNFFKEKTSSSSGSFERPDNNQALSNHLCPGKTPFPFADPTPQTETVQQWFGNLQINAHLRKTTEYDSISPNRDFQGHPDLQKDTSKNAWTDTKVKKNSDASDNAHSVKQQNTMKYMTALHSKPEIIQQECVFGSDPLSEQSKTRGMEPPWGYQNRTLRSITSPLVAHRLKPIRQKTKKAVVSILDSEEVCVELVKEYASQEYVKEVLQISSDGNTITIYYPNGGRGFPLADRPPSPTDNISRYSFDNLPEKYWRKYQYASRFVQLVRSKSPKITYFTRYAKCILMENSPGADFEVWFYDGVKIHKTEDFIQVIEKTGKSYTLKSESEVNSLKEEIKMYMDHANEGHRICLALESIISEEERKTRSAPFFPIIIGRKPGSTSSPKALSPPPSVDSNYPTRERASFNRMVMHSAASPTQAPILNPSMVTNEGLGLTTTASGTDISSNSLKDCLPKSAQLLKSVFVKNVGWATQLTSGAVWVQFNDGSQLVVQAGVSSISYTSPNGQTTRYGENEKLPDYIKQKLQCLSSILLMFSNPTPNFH

Consider `CN(C(=O)CN1CCOCC1)c1ccc2sc3c(-c4cccc5c(=O)cc(N6CC7CCC(C6)O7)oc45)cccc3c2c1` [NU5455], for which the inhibition at 1 µM was -2.8%.
